The text below walks through data of patent US11603355B2, “Charged ion channel blockers and methods for use” (Nocion Therapeutics, Inc., priority 2019, dated 2023).

In series [1] the target is T1, NaV1.7 (Homo sapiens, UniProt Q15858).
T1 construct: expressed in transfected cells; host or cells: HEK293 (tetracycline-inducible)
The series is described as follows: Automated patch clamp (Qube 384), internal block of NaV1.7. The following applies: IC50, compound in internal solution, HEK293 cells, read-out: Nav1.7 Intracellular Inhibition. The series is classed as cell-based. The method in brief: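 Tetracycline-induced HEK293 cells, whole-cell Qube recording at 22 degrees; compounds dissolved in internal solution (CsF-based, pH 7.3), exchanged after baseline. Held at −100 mV, 10 ms pulses to −20 mV at 5 Hz for 10 min; remaining current (last 3 points) vs baseline, rundown-corrected with no-drug cells; Hill-fit IC50.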

The target in series [2] is T1, NaV1.7. The series is described as follows: Automated patch clamp (Qube 384), external block of NaV1.7. The series is classed as cell-based. The conditions noted are these: IC50, compound in external solution, HEK293 cells, read-out: Nav1.7 Extracellular Inhibition. The gist of the method: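 Tetracycline-induced HEK293 cells, whole-cell patch at 22 degrees, held at −100 mV; 10 ms pulses to −20 mV at 5 Hz with leak subtraction. Compound applied in external solution (pH 7.4), then 10 min recording. Control-corrected, Hill-fitted IC50.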

Series [3] in a line: PAMPA membrane permeability assay. The series is classed as in vitro ADME. The conditions noted are these: permeability coefficient, pH 7.4 buffer, GIT lipid, 4 hours incubation. The method in brief:
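Passive diffusion across a GIT-lipid-painted artificial membrane at pH 7.4, with a 50 uM donor stock diluted from DMSO and a 4 h incubation. UV spectra of the donor, acceptor and reference plates were read, and the permeability coefficient was calculated from the AUCs, in 10^−6 cm/s.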
A general note: In PAMPA a lipid-coated filter parts donor from acceptor wells.

Where a name gives a salt, the structure may show the parent alone. Bounds are passed on as bounds.

T1 sequence (Q15858 whole entry): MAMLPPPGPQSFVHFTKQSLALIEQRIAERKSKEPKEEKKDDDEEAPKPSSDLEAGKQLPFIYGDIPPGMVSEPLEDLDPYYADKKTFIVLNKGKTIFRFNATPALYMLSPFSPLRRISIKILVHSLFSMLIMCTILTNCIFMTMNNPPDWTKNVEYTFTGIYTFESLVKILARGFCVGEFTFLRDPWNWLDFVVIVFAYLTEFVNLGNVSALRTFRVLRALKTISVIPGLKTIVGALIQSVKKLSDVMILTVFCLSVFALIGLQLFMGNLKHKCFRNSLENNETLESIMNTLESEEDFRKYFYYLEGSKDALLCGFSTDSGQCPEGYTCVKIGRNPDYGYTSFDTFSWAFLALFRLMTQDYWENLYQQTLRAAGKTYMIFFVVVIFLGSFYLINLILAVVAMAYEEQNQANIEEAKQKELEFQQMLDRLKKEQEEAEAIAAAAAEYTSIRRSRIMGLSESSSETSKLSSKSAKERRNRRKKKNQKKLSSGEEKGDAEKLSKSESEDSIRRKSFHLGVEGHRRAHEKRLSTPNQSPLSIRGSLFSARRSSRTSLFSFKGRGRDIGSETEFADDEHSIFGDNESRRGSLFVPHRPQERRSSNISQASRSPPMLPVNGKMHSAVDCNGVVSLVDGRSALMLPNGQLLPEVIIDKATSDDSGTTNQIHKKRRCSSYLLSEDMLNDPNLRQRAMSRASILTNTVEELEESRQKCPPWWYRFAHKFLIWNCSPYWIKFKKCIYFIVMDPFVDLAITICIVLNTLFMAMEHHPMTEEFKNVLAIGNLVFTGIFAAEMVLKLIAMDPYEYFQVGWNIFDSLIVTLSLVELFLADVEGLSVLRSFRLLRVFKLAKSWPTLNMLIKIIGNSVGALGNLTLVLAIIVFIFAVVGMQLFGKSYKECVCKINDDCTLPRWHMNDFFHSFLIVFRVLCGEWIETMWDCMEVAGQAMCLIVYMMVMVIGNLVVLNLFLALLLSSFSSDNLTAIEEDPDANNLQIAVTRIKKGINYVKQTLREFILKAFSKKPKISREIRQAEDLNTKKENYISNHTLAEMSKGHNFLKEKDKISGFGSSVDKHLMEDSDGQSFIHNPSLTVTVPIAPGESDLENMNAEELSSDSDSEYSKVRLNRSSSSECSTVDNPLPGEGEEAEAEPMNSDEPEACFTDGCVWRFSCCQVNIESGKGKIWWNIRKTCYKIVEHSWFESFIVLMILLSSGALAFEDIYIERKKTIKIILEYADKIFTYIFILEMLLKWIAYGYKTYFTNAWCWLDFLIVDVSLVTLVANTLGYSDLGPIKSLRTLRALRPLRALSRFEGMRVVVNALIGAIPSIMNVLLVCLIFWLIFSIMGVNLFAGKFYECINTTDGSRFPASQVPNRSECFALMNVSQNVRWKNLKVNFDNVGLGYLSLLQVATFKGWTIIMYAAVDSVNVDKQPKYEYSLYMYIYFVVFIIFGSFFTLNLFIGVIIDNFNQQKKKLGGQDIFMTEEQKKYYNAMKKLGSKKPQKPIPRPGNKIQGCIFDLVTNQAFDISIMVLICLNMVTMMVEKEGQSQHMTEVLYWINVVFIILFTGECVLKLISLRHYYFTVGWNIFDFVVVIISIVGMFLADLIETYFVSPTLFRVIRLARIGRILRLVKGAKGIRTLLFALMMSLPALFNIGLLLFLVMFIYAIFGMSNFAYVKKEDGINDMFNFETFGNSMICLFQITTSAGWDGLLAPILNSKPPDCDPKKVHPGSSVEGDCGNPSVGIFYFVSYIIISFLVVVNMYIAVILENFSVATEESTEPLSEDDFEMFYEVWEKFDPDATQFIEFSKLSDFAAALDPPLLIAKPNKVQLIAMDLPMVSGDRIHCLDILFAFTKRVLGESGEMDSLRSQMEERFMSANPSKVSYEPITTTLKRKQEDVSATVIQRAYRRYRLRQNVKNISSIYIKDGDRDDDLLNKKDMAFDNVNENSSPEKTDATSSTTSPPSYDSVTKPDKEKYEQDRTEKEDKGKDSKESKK

Regarding `CCCOC(=O)C1CCC[N+](CC(=O)Nc2c(C)cccc2C)(Cc2ccccc2)C1.[Br-]` (stereo not drawn) [Compound 47A, 1-benzyl-1-(2-((2,6-dimethylphenyl)amino)-2-oxoethyl)-3-(propoxycarbonyl) piperidin-1-ium bromide], the IC50 at NaV1.7 [1] lay within 1000 to 3000 nM; on NaV1.7 [2], 1 to 3 µM. Besides, in series [3], the “PAMPA (10^−6 cm/s)” value is recorded as “+ (“+” (<0.1 10^−6 cm/s))”.
The matching figures for `CCCOC(=O)N1CCC[N+](CC(=O)Nc2c(C)cccc2C)(Cc2ccccc2)CC1.[Br-]` (stereo not drawn) [Compound 68A, 1-benzyl-1-(2-((2,6-dimethylphenyl)amino)-2-oxoethyl)-4-(propoxycarbonyl)-1,4-diazepan-1-ium bromide]: 300 to 1000 nM, > 10 µM and “+ (“+” (<0.1 10^−6 cm/s))”.
In the same order, the values of `Cc1cccc(C)c1NC(=O)C[N+]1(Cc2ccccc2)CCCC(C(=O)N2CCCCC2)C1` (stereo not drawn) [Compound 63A] are 300 to 1000 nM, 3 to 10 µM and “+ (“+” (<0.1 10^−6 cm/s))”.
In the same order, the values of `CNC(=O)C1CCC[N+](CC(=O)Nc2c(C)cccc2C)(Cc2ccccc2)C1` (stereo not drawn) [Compound 55A] are 300 to 1000 nM, > 10 µM and “+++ (“+++” (2.0-10.010^−6 cm/s))”.
Turning to `Cc1cccc(C)c1N(C)C(=O)C[N+]1(Cc2ccccc2)CCCCCC1` [Compound 38A, 1-benzyl-1-(2-((2,6-dimethylphenyl) (methyl)amino)-2-oxoethyl) azepan-1-ium formate], the IC50 was 1000 to 3000 nM at NaV1.7 [1] and > 10 µM at NaV1.7 [2]. For the same molecule, in series [3], the “PAMPA (10^−6 cm/s)” value is on record as “+ (“+” (<0.1 10^−6 cm/s))”.
As to `CCNC(=O)C1CCC[N+](CC(=O)Nc2c(C)cccc2C)(Cc2ccccc2)C1.[Br-]` (stereo not drawn) [Compound 54A, 1-benzyl-1-(2-((2,6-dimethylphenyl)amino)-2-oxoethyl)-3-(ethylcarbamoyl) piperidin-1-ium bromide], the IC50 at NaV1.7 [1] is 300 to 1000 nM; at NaV1.7 [2] it was > 10 µM. Further, the “PAMPA (10^−6 cm/s)” value in series [3] is recorded as “+ (“+” (<0.1 10^−6 cm/s))”.
For the molecule `Cc1cccc(C)c1N1CCC([N+]2(Cc3ccccc3)CCCCCCC2)C1=O.[Br-]` (stereo not drawn) [Compound 90A], the results for the IC50 on NaV1.7 [1] and on NaV1.7 [2] were 300 to 1000 nM and 3 to 10 µM, respectively. Further, in series [3], the “PAMPA (10^−6 cm/s)” value was “+ (“+” (<0.1 10^−6 cm/s))”.
Regarding `Cc1cccc(C)c1NC(=O)C[N+]1(Cc2ccccc2)CCCC(C(=O)OC(C)C)C1` (mixture of isomers) [Compound 46A, 1-benzyl-1-(2-((2,6-dimethylphenyl)amino)-2-oxoethyl)-3-(isopropoxycarbonyl) piperidin-1-ium trifluoroacetate salt], the IC50 was 300 to 1000 nM on NaV1.7 [1] and 3 to 10 µM at NaV1.7 [2]. Moreover, the “PAMPA (10^−6 cm/s)” value in series [3] is on record as “+ (“+” (<0.1 10^−6 cm/s))”.
In the same order, the values of `Cc1cccc(C)c1NC(=O)C[N+]1(Cc2ccccc2)CCCC(C(=O)N2CCCC2)C1` (stereo not drawn) [Compound 62A] are 300 to 1000 nM, > 10 µM and “+ (“+” (<0.1 10^−6 cm/s))”.
The matching figures for `Cc1cccc(C)c1N1CCCC([N+]2(Cc3ccccc3)CCCC2)C1=O.[Br-]` (stereo not drawn) [Compound 91A, 1-benzyl-1-(1-(2,6-dimethylphenyl)-2-oxopiperidin-3-yl) pyrrolidin-1-ium bromide]: 1000 to 3000 nM, > 10 µM and “+ (“+” (<0.1 10^−6 cm/s))”.
The matching figures for `Cc1cccc(F)c1NC(=O)C[N+]1(Cc2ccccc2)CCCCCC1.[Br-]` [Compound 69A, 1-benzyl-1-(2-((2-fluoro-6-methylphenyl)amino)-2-oxoethyl)azepan-1-ium bromide]: 300 to 1000 nM, 3 to 10 µM and “++ (“++” (0.1-2.0 10^−6 cm/s))”.
Turning to “1-benzyl-1-(2-((2-(dimethylcarbamoyl)-6-methylphenyl) amino)-2-oxoethyl) azepan-1-ium bromide [Compound 81A]”, the figures for the IC50 on NaV1.7 [1] and on NaV1.7 [2] were 300 to 1000 nM and > 10 µM, respectively. Further, the “PAMPA (10^−6 cm/s)” value in series [3] is on record as “+ (“+” (<0.1 10^−6 cm/s))”.
As for `Cc1cccc(C)c1NC(=O)C[N+]1(Cc2ccccc2)CCCC(F)(F)C1.[Br-]` (stereo not drawn) [Compound 32A, 1-benzyl-1-(2-((2,6-dimethylphenyl)amino)-2-oxoethyl)-3,3-difluoropiperidin-1-ium bromide], the IC50 at NaV1.7 [1] is 300 to 1000 nM; at NaV1.7 [2], > 10 µM. Besides, the “PAMPA (10^−6 cm/s)” value in series [3] is on record as “+ (“+” (<0.1 10^−6 cm/s))”.
Turning to `CCN(CC)C(=O)C1CCC[N+](CC(=O)Nc2c(C)cccc2C)(Cc2ccccc2)C1` (stereo not drawn) [Compound 66A], the IC50 at NaV1.7 [1] was 1000 to 3000 nM; on NaV1.7 [2] it was > 10 µM. For the same molecule, the “PAMPA (10^−6 cm/s)” value in series [3] is listed as “+ (“+” (<0.1 10^−6 cm/s))”.
